According to patent US6046168A, “Peptide inhibits blood triglyceride level” (Hankyu-Kyoei Bussan Co., Ltd., priority 1993, dated 2000):
Residues, ends and D or L forms follow the SMILES beside them.

System: Healthy albino mice
Assay: Serum TG elevation inhibiting action at the time of in vivo lipid loading (olive oil)
Conditions: for Ratio of Increase in Blood TG Levels (%): blood collected 3 hours after
Procedure: Serum TG elevation inhibiting action at the time of in vivo lipid loading was examined on the three peptides of the invention inhibiting elevations of TG levels in blood (i.e., the peptide having the amino acid sequence of SEQ ID NO: 1 and the peptides Val-Thr-Leu and Val-Tyr-Pro synthesized by the method described in Example 4). Healthy albino mice (5-10 weeks old; body weight: about 20-30 g) were used in this experiment. To each mouse, 250 mg of olive oil and an aqueous solution of the above peptide were administered orally. Three hours thereafter, blood was collected under anesthesia with Nembutal. After separation of the blood, the TG level in blood was determined.

## CC(C)C[C@H](NC(=O)[C@@H](NC(=O)[C@@H](N)C(C)C)[C@@H](C)O)C(=O)O [Val--Thr--Leu, H-Val-Thr-Leu-OH] (H-Val-Thr-Leu-OH)
Dose 0.1 mg/mouse oral with 250 mg olive oil
  Ratio of Increase in Blood TG Levels (%): 30%
Dose 0.2 mg/mouse oral with 250 mg olive oil
  Ratio of Increase in Blood TG Levels (%): 33%
Dose 1.0 mg/mouse oral with 250 mg olive oil
  Ratio of Increase in Blood TG Levels (%): 73%
Dose 2.5 mg/mouse oral with 250 mg olive oil
  Ratio of Increase in Blood TG Levels (%): 76%
Dose 5.0 mg/mouse oral with 250 mg olive oil
  Ratio of Increase in Blood TG Levels (%): 79%
oral, mice loaded with 250 mg olive oil, blood TG after 3 hours
  ID50: Dose (mg/mouse) exhibiting 50% inhibition: 0.43 mg/mouse
Relative to the proteolysate (= 1), times
  Specific Activity: 65
